From patent US12209102B2, “Heterocyclic compounds and uses thereof” (Kumquat Biosciences Inc., priority 2022, dated 2025)

What was measured:
SW620 cells = test: Ras cellular assay, growth of cells with K-Ras G12V mutation (CellTiter-Glo); type: cell-based; conditions: Homo sapiens, SW-620; cell growth, Example 9, G12V mutation; read-out: IC50 against SW620 cells
Outline: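 IC50 values came from a four-parameter fit of CellTiter-Glo viability, read roughly 6 days after dosing with e.g. a 10-point threefold dilution series. G12V-mutant SW620 cells (e.g. 800 per well) had been plated the previous day in RPMI-1640/10% heat-inactivated FBS, on tissue culture-treated or ultra-low attachment plates.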

K-Ras G12S = molecular target: T1, K-Ras G12S (Homo sapiens, UniProt P01116, G12S); test: HTRF resonance energy transfer assay, K-Ras G12S / SOS1 interaction; type: biochemical; conditions: HTRF assay of Example 5; read-out: IC50 against K-Ras G12S
T1 construct: made in house; host or cells: E. coli BL21 (DE3)
T1 sequence (P01116 1-188 isoform P01116-2 G12S): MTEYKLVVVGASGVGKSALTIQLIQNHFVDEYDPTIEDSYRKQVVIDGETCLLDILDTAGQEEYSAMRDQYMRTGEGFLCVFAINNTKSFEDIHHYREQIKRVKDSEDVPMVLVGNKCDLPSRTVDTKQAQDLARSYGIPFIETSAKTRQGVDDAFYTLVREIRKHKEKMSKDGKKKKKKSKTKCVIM
Outline: (§1)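 Compounds, tested in duplicate at 10 μM down to 0.01 μM, were read after about 10 min or more by HTRF as the 665/620 nm emission ratio (337 nm excitation) to derive IC50. This ratio reports FRET between an anti-GST-Eu donor on GST-K-Ras (wild-type or mutant) and an anti-6His-XL665 acceptor on His-hSOS1. Buffer: ~5 mM HEPES pH 7.4, 150 mM NaCl, 1 mM DTT, 0.05% BSA, 0.0025% Igepal.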

K-Ras WT = molecular target: T2, K-Ras WT (Homo sapiens, UniProt P01116); test: HTRF resonance energy transfer assay, K-Ras WT / SOS1 interaction; type: biochemical; conditions: HTRF assay of Example 5; read-out: IC50 against K-Ras WT
T2 construct: made in house; host or cells: E. coli BL21 (DE3)
T2 sequence (P01116 1-188 isoform P01116-2): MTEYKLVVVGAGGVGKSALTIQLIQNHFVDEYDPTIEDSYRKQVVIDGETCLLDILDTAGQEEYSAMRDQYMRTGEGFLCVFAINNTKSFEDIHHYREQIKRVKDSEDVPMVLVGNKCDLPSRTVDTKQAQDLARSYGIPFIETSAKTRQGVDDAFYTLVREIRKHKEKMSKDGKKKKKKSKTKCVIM
Outline: as §1

A549 cells = test: Ras cellular assay, growth of cells with K-Ras G12S mutation (CellTiter-Glo); type: cell-based; conditions: Homo sapiens, cell growth, Example 9, G12S mutation, read-out: IC50 against A549 cells
Outline: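 Growth inhibition IC50 values come from four-parameter fits of CellTiter-Glo luminescence, read about 6 days after compound addition. G12S-mutant A549 cells (e.g. 800/well, RPMI-1640 + 10% heat-inactivated FBS) were plated in tissue-culture-treated or ultra-low-attachment 384-well format. Dosing began the following day with serial dilutions, e.g. 10 points, 3-fold.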

K-Ras G12V = molecular target: T3, K-Ras G12V (Homo sapiens, UniProt P01116, G12V); test: HTRF resonance energy transfer assay, K-Ras G12V / SOS1 interaction; type: biochemical; conditions: HTRF assay of Example 5; read-out: IC50 against K-Ras G12V
T3 construct: made in house; host or cells: E. coli BL21 (DE3)
T3 sequence (P01116 1-188 isoform P01116-2 G12V): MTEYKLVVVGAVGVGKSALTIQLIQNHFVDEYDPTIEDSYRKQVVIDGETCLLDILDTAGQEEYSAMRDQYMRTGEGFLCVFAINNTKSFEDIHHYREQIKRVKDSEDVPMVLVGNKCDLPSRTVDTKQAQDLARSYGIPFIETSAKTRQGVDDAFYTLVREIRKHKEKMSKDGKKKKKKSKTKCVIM
Outline: as §1

K-Ras G12D = molecular target: T4, K-Ras G12D (Homo sapiens, UniProt P01116, G12D); test: HTRF resonance energy transfer assay, K-Ras G12D / SOS1 interaction; type: biochemical; conditions: HTRF assay of Example 5; read-out: IC50 against K-Ras G12D
T4 construct: made in house; host or cells: E. coli BL21 (DE3)
T4 sequence (P01116 1-188 isoform P01116-2 G12D): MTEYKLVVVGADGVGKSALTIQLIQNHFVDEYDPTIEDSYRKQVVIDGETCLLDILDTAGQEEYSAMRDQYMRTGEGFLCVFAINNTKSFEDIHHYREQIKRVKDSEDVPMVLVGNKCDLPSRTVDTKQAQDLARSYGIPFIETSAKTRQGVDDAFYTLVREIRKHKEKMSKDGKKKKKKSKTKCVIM
Outline: as §1

GP2D cells = test: Ras cellular assay, growth of cells with K-Ras G12D mutation (CellTiter-Glo); type: cell-based; conditions: cell growth, Example 9, G12D mutation, read-out: IC50 against GP2D cells

SMILES | IC50 (SW620 cells) [µM] | IC50 (K-Ras G12S) [nM] | IC50 (K-Ras WT) [nM] | IC50 (A549 cells) [µM] | IC50 (K-Ras G12V) [nM] | IC50 (K-Ras G12D) [nM] | IC50 (GP2D cells) [nM]
N#Cc1c(N)sc2c(F)ccc(-c3c(Cl)c4c5c(nc(OC[C@@]67CCCN6C[C@H](F)C7)nc5c3F)N(CCC(F)(F)F)CCO4)c12 [Compound 932, 2-amino-4-(8-chloro-10-fluoro-2-(((2R,7aS)-2-fluorotetrahydro-1H-pyrrolizin-7a(5H)-yl)methoxy)-4-(3,3,3-trifluoropropyl)-5,6-dihydro-4H-[1,4]oxazepino[5,6,7-de]quinazolin-9-yl)-7-fluorobenzo[b]thiophene-3-carbonitrile] | < 5 | < 100 | < 100 | < 5 | < 100 | < 100 | < 500
CC(CO)N1CCOc2c(Cl)c(-c3ccc(F)c4sc(N)c(C#N)c34)c(F)c3nc(OC[C@@]45CCCN4C[C@H](F)C5)nc1c23 (stereo partly drawn) [Compound 937, 2-amino-4-(8-chloro-10-fluoro-2-(((2R,7aS)-2-fluorotetrahydro-1H-pyrrolizin-7a(5H)-yl)methoxy)-4-(1-hydroxypropan-2-yl)-5,6-dihydro-4H-[1,4]oxazepino[5,6,7-de]quinazolin-9-yl)-7-fluorobenzo[b]thiophene-3-carbonitrile] | < 5 | < 100 | < 100 | < 5 | < 100 | < 100 | < 500
N#Cc1c(N)sc2c(F)ccc(-c3c(Cl)c4c5c(nc(OC[C@@]67CCCN6C[C@H](F)C7)nc5c3F)N([C@H]3CCN(C(=O)C(F)F)C3)CCO4)c12 [Compound 940, 2-amino-4-(8-chloro-4-((S)-1-(2,2-difluoroacetyl)pyrrolidin-3-yl)-10-fluoro-2-(((2R,7aS)-2-fluorotetrahydro-1H-pyrrolizin-7a(5H)-yl)methoxy)-5,6-dihydro-4H-[1,4]oxazepino[5,6,7-de]quinazolin-9-yl)-7-fluorobenzo[b]thiophene-3-carbonitrile] | < 5 | < 100 | < 100 | < 5 | < 100 | < 100 | < 500
CC1Oc2c(Cl)c(-c3ccc(F)c4sc(N)c(C#N)c34)c(F)c3nc(OC[C@@]45CCCN4C[C@H](F)C5)nc(c23)N(CC(F)F)C1C (stereo partly drawn) [Compound 944, 2-amino-4-(8-chloro-4-(2,2-difluoroethyl)-10-fluoro-2-(((2R,7aS)-2-fluorotetrahydro-1H-pyrrolizin-7a(5H)-yl)methoxy)-5,6-dimethyl-5,6-dihydro-4H-[1,4]oxazepino[5,6,7-de]quinazolin-9-yl)-7-fluorobenzo[b]thiophene-3-carbonitrile] | < 5 | < 100 | < 100 | < 5 | < 100 | < 100 | < 500
C[C@H]1CN(CCN(C)C)c2nc(OC[C@@]34CCCN3C[C@H](F)C4)nc3c(F)c(-c4ccc(F)c5sc(N)c(C#N)c45)c(Cl)c(c23)O1 [Compound 950, 2-amino-4-((6S)-8-chloro-4-(2-(dimethylamino)ethyl)-10-fluoro-2-(((2R,7aS)-2-fluorotetrahydro-1H-pyrrolizin-7a(5H)-yl)methoxy)-6-methyl-5,6-dihydro-4H-[1,4]oxazepino[5,6,7-de]quinazolin-9-yl)-7-fluorobenzo[b]thiophene-3-carbonitrile] | < 5 | < 100 | < 100 | < 5 | < 100 | < 100 | < 500
N#Cc1c(N)sc2c(F)ccc(-c3c(Cl)c4c5c(nc(OC[C@@]67CCCN6C[C@H](F)C7)nc5c3F)N(CC3CC(F)(F)C3)CCO4)c12 [Compound 951, 2-amino-4-(8-chloro-4-((3,3-difluorocyclobutyl)methyl)-10-fluoro-2-(((2R,7aS)-2-fluorotetrahydro-1H-pyrrolizin-7a(5H)-yl)methoxy)-5,6-dihydro-4H-[1,4]oxazepino[5,6,7-de]quinazolin-9-yl)-7-fluorobenzo[b]thiophene-3-carbonitrile] | < 5 | < 100 | < 100 | < 5 | < 100 | < 100 | < 500
C[C@H](O)[C@H]1COc2c(Cl)c(-c3ccc(F)c4sc(N)c(C#N)c34)c(F)c3nc(OC[C@@]45CCCN4C[C@H](F)C5)nc(c23)N1CCC(F)F [Compound 954, 2-amino-4-((5R)-8-chloro-4-(3,3-difluoropropyl)-10-fluoro-2-(((2R,7aS)-2-fluorotetrahydro-1H-pyrrolizin-7a(5H)-yl)methoxy)-5-((S)-1-hydroxyethyl)-5,6-dihydro-4H-[1,4]oxazepino[5,6,7-de]quinazolin-9-yl)-7-fluorobenzo[b]thiophene-3-carbonitrile] | < 5 | < 100 | < 100 | < 5 | < 100 | < 100 | < 500
N#Cc1c(N)sc2c(F)ccc(-c3c(Cl)c4c5c(nc(OC[C@@]67CCCN6C[C@H](F)C7)nc5c3F)N(C3CC35CN(C=O)C5)CCO4)c12 (stereo partly drawn) [Compound 957, 2-amino-4-(8-chloro-10-fluoro-2-(((2R,7aS)-2-fluorotetrahydro-1H-pyrrolizin-7a(5H)-yl)methoxy)-4-(5-formyl-5-azaspiro[2.3]hexan-1-yl)-5,6-dihydro-4H-[1,4]oxazepino[5,6,7-de]quinazolin-9-yl)-7-fluorobenzo[b]thiophene-3-carbonitrile] | < 5 | < 100 | < 100 | < 5 | < 100 | < 100 | < 500
N#Cc1c(N)sc2c(F)ccc(-c3c(Cl)c4c5c(nc(OC[C@@]67CCCN6C[C@H](F)C7)nc5c3F)N(C3CCN(C(=O)[C@@H]5CCOC5)C3)CCO4)c12 (stereo partly drawn) [Compound 960, 2-amino-4-(8-chloro-10-fluoro-2-(((2R,7aS)-2-fluorotetrahydro-1H-pyrrolizin-7a(5H)-yl)methoxy)-4-(1-((R)-tetrahydrofuran-3-carbonyl)pyrrolidin-3-yl)-5,6-dihydro-4H-[1,4]oxazepino[5,6,7-de]quinazolin-9-yl)-7-fluorobenzo[b]thiophene-3-carbonitrile] | < 5 | < 100 | < 100 | < 5 | < 100 | < 100 | < 500
CS(=O)(=O)N1CCC(N2CCOc3c(Cl)c(-c4ccc(F)c5sc(N)c(C#N)c45)c(F)c4nc(OC[C@@]56CCCN5C[C@H](F)C6)nc2c34)C1 (stereo partly drawn) [Compound 966, 2-amino-4-(8-chloro-10-fluoro-2-(((2R,7aS)-2-fluorotetrahydro-1H-pyrrolizin-7a(5H)-yl)methoxy)-4-(1-(methylsulfonyl)pyrrolidin-3-yl)-5,6-dihydro-4H-[1,4]oxazepino[5,6,7-de]quinazolin-9-yl)-7-fluorobenzo[b]thiophene-3-carbonitrile] | < 5 | < 100 | < 100 | < 5 | < 100 | < 100 | < 500
N#Cc1c(N)sc2c(F)ccc(-c3c(Cl)c4c5c(nc(OC[C@@]67CCCN6C[C@H](F)C7)nc5c3F)N(C3CCNC3)CCO4)c12 (stereo partly drawn) [Compound 969, 2-amino-4-(8-chloro-10-fluoro-2-(((2R,7aS)-2-fluorotetrahydro-1H-pyrrolizin-7a(5H)-yl)methoxy)-4-(pyrrolidin-3-yl)-5,6-dihydro-4H-[1,4]oxazepino[5,6,7-de]quinazolin-9-yl)-7-fluorobenzo[b]thiophene-3-carbonitrile] | < 5 | < 100 | < 100 | < 5 | < 100 | < 100 | < 500
N#Cc1c(N)sc2c(F)ccc(-c3c(Cl)c4c5c(nc(OC[C@@]67CCCN6C[C@H](F)C7)nc5c3F)N(C35COC(CF)(C3)C5)CCO4)c12 [Compound 972, 2-amino-4-(8-chloro-10-fluoro-4-(1-(fluoromethyl)-2-oxabicyclo[2.1.1]hexan-4-yl)-2-(((2R,7aS)-2-fluorotetrahydro-1H-pyrrolizin-7a(5H)-yl)methoxy)-5,6-dihydro-4H-[1,4]oxazepino[5,6,7-de]quinazolin-9-yl)-7-fluorobenzo[b]thiophene-3-carbonitrile] | < 5 | < 100 | < 100 | < 5 | < 100 | < 100 | < 500
